In assay [1] the test system is class IIa HDACs. In words: Global quantitative proteomics, change in protein abundance in Kelly cells. The class given is cell-based, human. To be noted: 5 hours, vs DMSO, moderated t-test. The procedure: (§1) Cells were washed once with phosphate-buffered saline (PBS), harvested with CellstripperTM (Corning®), washed two additional times with PBS and snap frozen in liquid nitrogen. […] Proteins were precipitated using methanol/chloroform in Donovan et al., Elife 7:e38430 (2018). The precipitated protein was resuspended in 4 M Urea, 50 mM HEPES pH 7.4, followed by dilution to 1 M urea with the addition of 200 mM EPPS, pH 8. Proteins were first digested with LysC (1:50: enzyme:protein) for 12 hours at room temperature. The LysC digestion was diluted to 0.5 M Urea with 200 mM EPPS pH 8 followed by digestion with trypsin (1:50: enzyme:protein) for 6 hours at 37° C. Tandem mass tag (TMT) reagents (Thermo Fisher Scientific) were dissolved in anhydrous acetonitrile (ACN) according to manufacturer's instructions. Anhydrous ACN was added to each peptide sample to a final concentration of 30% v/v, and labeling was induced with the addition of TMT reagent to each sample at a ratio of 1:4 peptide:TMT label. The 11-plex labeling reactions were performed for 1.5 hours at room temperature and the reaction quenched by the addition of hydroxylamine to a final concentration of 0.3% for 15 minutes at room temperature. The sample channels were combined at a 1:1 ratio, desalted using C18 solid phase extraction cartridges (Waters®) and analyzed by LC-MS for channel ratio comparison. Samples were then combined using the adjusted volumes determined in the channel ratio analysis and dried down in a speed vacuum. The combined sample was then resuspended in 1% formic acid, and acidified (pH 2-3) before being subjected to desalting with C18 SPE (Sep-Pak®-, Waters®). […] Proteome Discoverer 2.2 (Thermo Fisher Scientific) was used for .RAW file processing and controlling peptide and protein level false discovery rates, assembling proteins from peptides, and protein quantification from peptides. […] TMT reporter ion intensities were measured using a 0.003 Da window around the theoretical m/z for each reporter ion in the MS3 scan. […]

Assay [2] has as its target T1, HDAC7 (Homo sapiens, UniProt Q8WUI4).
T1 sequence (Q8WUI4 1-952): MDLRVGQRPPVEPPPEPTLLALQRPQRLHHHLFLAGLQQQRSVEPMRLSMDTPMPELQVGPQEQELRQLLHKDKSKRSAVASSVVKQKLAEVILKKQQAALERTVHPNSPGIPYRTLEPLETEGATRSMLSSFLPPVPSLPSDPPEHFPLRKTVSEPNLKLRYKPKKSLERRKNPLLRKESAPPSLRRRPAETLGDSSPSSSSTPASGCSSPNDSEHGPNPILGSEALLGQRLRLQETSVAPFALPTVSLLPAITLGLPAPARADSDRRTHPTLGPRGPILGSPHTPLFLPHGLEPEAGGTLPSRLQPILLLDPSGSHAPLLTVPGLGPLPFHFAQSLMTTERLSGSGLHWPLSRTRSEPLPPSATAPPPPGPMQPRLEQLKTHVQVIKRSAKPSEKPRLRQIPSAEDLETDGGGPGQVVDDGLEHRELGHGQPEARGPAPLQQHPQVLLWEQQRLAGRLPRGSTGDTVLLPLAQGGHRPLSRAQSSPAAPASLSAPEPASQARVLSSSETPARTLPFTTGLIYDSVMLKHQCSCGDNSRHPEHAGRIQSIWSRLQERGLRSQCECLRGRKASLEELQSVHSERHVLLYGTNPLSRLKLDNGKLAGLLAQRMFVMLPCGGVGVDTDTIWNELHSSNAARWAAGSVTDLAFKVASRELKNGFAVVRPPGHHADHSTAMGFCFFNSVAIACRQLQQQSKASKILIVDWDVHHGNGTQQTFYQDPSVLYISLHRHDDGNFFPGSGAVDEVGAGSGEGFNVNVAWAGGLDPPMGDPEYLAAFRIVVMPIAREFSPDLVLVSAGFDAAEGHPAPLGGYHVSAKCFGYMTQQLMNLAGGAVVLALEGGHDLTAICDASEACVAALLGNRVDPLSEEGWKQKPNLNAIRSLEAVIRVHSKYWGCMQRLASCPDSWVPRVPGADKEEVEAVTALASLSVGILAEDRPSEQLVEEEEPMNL
The assay is described as above. Also noted: endogenous in cells; host or cells: Kelly cells. The note with it: 5-hour treatment, vs DMSO, FIG. 3. The class given is cell-based. The procedure: (§2) Cells were washed once with phosphate-buffered saline (PBS), harvested with CellstripperTM (Corning®), washed two additional times with PBS and snap frozen in liquid nitrogen. […] Proteins were precipitated using methanol/chloroform in Donovan et al., Elife 7:e38430 (2018). The precipitated protein was resuspended in 4 M Urea, 50 mM HEPES pH 7.4, followed by dilution to 1 M urea with the addition of 200 mM EPPS, pH 8. Proteins were first digested with LysC (1:50: enzyme:protein) for 12 hours at room temperature. The LysC digestion was diluted to 0.5 M Urea with 200 mM EPPS pH 8 followed by digestion with trypsin (1:50: enzyme:protein) for 6 hours at 37° C. Tandem mass tag (TMT) reagents (Thermo Fisher Scientific) were dissolved in anhydrous acetonitrile (ACN) according to manufacturer's instructions. Anhydrous ACN was added to each peptide sample to a final concentration of 30% v/v, and labeling was induced with the addition of TMT reagent to each sample at a ratio of 1:4 peptide:TMT label. The 11-plex labeling reactions were performed for 1.5 hours at room temperature and the reaction quenched by the addition of hydroxylamine to a final concentration of 0.3% for 15 minutes at room temperature. The sample channels were combined at a 1:1 ratio, desalted using C18 solid phase extraction cartridges (Waters®) and analyzed by LC-MS for channel ratio comparison. Samples were then combined using the adjusted volumes determined in the channel ratio analysis and dried down in a speed vacuum. The combined sample was then resuspended in 1% formic acid, and acidified (pH 2-3) before being subjected to desalting with C18 SPE (Sep-Pak®-, Waters®). […] The 96 resulting fractions were then pooled in a non-contiguous manner into 24 fractions and these fractions were used for subsequent mass spectrometry analysis. Data were collected using an Orbitrap FusionTM LumosTM mass spectrometer (Thermo Fisher Scientific, San Jose, CA, USA) coupled with a […] pump (Thermo Fisher Scientific). Peptides were separated on an EasySprayTM ES803.rev2 75 μm inner diameter microcapillary column (ThermoFisher Scientific). Peptides were separated using a 190 min gradient of 6-27% acetonitrile in 1.0% formic acid with a flow rate of 300 nL/min. Each analysis used an MS3-based TMT method as described in McAlister et al., Anal. Chem. 86(14):7150-7158 (2014). The data were acquired using a mass range of m/z 340-1350, resolution 120,000, automatic gain control (AGC) target 1×10^6, maximum injection time 100 ms, dynamic exclusion of 120 seconds for the peptide measurements in the Orbitrap FusionTM LumosTM mass spectrometer. Data dependent MS2 spectra were acquired in the ion trap with a normalized collision energy (NCE) set at 55%, AGC target set to 1.5×10^5 and a maximum injection time of 150 ms. MS3 scans were acquired in the Orbitrap FusionTM LumosTM mass spectrometer with a higher energy collision dissociation (HCD) set to 55%, AGC target set to 1.5×10^5, maximum injection time of 150 ms, resolution at 50,000 and with a maximum synchronous precursor selection (SPS) precursors set to 10. Proteome Discoverer 2.2 (Thermo Fisher Scientific) was used for .RAW file processing and controlling peptide and protein level false discovery rates, assembling proteins from peptides, and protein quantification from peptides. MS/MS spectra were searched against a Swissprot human database (December 2016) with both the forward and reverse sequences. […] TMT reporter ion intensities were measured using a 0.003 Da window around the theoretical m/z for each reporter ion in the MS3 scan. […] Reporter ion intensities were normalized and scaled using in-house scripts in the R framework. Statistical analysis was carried out using the limma package within the R framework as described in Ritchie et al., Nucleic Acids Res. 43(7):e47 (2015).

Assay [3] relates to class IIa HDACs. Put plainly: Global quantitative proteomics, change in protein abundance in MM.1S cells. The class given is cell-based, human. The note with it: 1 μM, 5-hour treatment, vs DMSO, moderated t-test, FIG. 5. The procedure:
as §1, with “Tandem mass tag (TMT) reagents (Thermo Fisher Scientific) were dissolved in anhydrous acetonitrile (ACN) according to manufacturer's instructions. Anhydrous ACN was added to each peptide sample to a final concentration of 30% v/v, and labeling was induced with the addition of TMT reagent to each sample at a ratio of 1:4 peptide:TMT label. The 11-plex labeling reactions were performed for 1.5 hours at room temperature and the reaction quenched by the addition of hydroxylamine to a final concentration of 0.3% for 15 minutes at room temperature.” left out, “vacuum.” for “vacuum. The combined sample was then resuspended in 1% formic acid, and acidified (pH 2-3) before being subjected to desalting with C18 SPE (Sep-Pak®-, Waters®).”

Assay [4] addresses HDAC5 (Homo sapiens, UniProt Q9UQL6). In words: Global quantitative proteomics, change in protein abundance in Kelly cells. The format is cell-based. The note with it: 5 μM, 5-hour treatment, vs DMSO, FIG. 3. On the set-up: endogenous in cells; host or cells: Kelly cells. The procedure:
as §2

The structures appear in SMILES notation.

HDAC5, sequence (Q9UQL6 whole entry): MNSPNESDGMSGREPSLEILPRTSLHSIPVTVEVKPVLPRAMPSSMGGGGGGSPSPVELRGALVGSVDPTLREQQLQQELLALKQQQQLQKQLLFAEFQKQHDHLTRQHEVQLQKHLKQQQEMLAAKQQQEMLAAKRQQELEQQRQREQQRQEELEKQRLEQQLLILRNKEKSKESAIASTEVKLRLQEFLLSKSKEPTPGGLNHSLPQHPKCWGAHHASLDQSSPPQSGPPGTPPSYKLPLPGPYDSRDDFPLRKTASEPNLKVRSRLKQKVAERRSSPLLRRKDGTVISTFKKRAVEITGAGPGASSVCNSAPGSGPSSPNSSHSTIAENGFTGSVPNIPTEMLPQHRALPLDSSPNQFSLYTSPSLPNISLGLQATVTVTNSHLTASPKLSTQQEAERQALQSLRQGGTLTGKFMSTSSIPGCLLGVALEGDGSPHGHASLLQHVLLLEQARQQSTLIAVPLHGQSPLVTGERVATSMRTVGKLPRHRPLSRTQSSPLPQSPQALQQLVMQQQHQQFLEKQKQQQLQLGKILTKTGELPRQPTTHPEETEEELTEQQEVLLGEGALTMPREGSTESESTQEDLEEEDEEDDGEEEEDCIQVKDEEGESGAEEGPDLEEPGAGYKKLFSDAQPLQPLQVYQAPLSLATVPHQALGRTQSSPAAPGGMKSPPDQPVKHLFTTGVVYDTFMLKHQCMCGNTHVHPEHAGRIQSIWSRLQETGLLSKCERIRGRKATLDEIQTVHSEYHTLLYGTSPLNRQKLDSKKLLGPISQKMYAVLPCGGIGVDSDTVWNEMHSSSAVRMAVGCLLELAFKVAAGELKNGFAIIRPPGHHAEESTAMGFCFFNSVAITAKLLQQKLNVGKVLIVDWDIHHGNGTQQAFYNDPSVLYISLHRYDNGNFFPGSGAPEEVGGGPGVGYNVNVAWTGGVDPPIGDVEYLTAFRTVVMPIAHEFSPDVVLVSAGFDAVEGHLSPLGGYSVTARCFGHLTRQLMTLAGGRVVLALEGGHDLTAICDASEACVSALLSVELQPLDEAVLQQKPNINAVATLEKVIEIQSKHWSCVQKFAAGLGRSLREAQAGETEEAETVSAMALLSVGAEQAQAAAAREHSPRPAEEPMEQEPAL

For `CCN(CCOCCOCCC(=O)N[C@H](C(=O)N1C[C@H](O)C[C@H]1C(=O)N[C@@H](C)c1ccc(-c2scnc2C)cc1)C(C)(C)C)C[C@@H](C)NC(=O)c1ccc(-c2noc(C(F)(F)F)n2)cc1` [Compound 17], the “class IIa HDAC levels (relative protein abundance)” value in assay [1] (1 μM, FIG. 4B-4C) is listed as “significant reduction”; in assay [3] it was “significant reduction”. Further, in assay [2] (1 μM), the “protein expression level of HDAC7” value is listed as “selective reduction in protein expression level”.

For `O=C1CCC(N2C(=O)c3cccc(NCCN4CCC(CNC(=O)c5cccc(-c6noc(C(F)(F)F)n6)c5)(c5nc(-c6ccccc6)cs5)CC4)c3C2=O)C(=O)N1` (stereo not drawn) [Compound 3, N-((1-(2-((2-(2,6-dioxopiperidin-3-yl)-1,3-dioxoisoindolin-4-yl)amino)ethyl)-4-(4-phenylthiazol-2-yl)piperidin-4-yl)methyl)-3-(5-(trifluoromethyl)-1,2,4-oxadiazol-3-yl)benzamide], the “class IIa HDAC levels (relative protein abundance)” value in assay [1] (5 μM, FIG. 4A) is on record as “significant reduction”. For the same compound, in assay [4], the “protein expression level of HDAC5” value is recorded as “reduction in protein expression level”. In addition, the “protein expression level of HDAC7” value in assay [2] (5 μM) is “reduction in protein expression level”.
